Consider eleven molecules from paper PMC11432624.

In brackets after ≈: the same amount, converted by molar mass. Several values for one entry are separate records, joined by “and”; a condition that tells them apart may be missing. Identical values can stand only once. Like-named read-outs stand apart in the source and are kept apart here. Starred links: 1 amine or outer side, 2 acyl side, 3 side chain; linkers in the order of their positions; H or OH if unused. Positions of bridges follow the written chain, without caps; N, C: chain ends. Non-standard residues stand in square brackets, D forms with d. Residues, ends and D or L forms follow the SMILES beside them. No end group written: not given here. *: point of attachment. hTyr(3S-OH,4S-OH,3'-OSO3H) = N[C@H](C(=O)O)[C@H](O)[C@@H](O)c1ccc(O)c(OS(=O)(=O)O)c1; pTerphenylCO(4''-OnC5H11) = CCCCCOc1ccc(-c2ccc(-c3ccc(C(=O)*)cc3)cc2)cc1; Orn(4R-OH,5R-OH) = O=C([C@H](C[C@@H](O)[C@@H](O)N[*:3])N[*:1])[*:2]; hTyr(3S-OH,4S-OH) = N[C@H](C(=O)O)[C@H](O)[C@@H](O)c1ccc(O)cc1; Pro(3S-OH,4S-Me) = C[C@H]1CN[C@H](C(=O)O)[C@H]1O; X1 = CCCCCOc1ccc(-c2cc(-c3ccc(C(=O)*)cc3)no2)cc1; Gln(3R-OH) = NC(=O)C[C@@H](O)[C@H](N)C(=O)O; Hyp = O=C(O)[C@@H]1C[C@@H](O)CN1

In data set [1] the test system is Candida albicans 9.1. Nature of the data set: Sensitivity of clinical isolates to conventional antimycotics (broth dilution MIC). As to conditions: Candida albicans, 9.1, read-out: MICs. Background: Broth dilution looks for growth in wells or tubes with falling amounts of substance.
Data set [2] deals with C. albicans ATCC 18804. Nature of the data set: microbe, parasite or virus in culture. The class given is cell-based. The source says:
(§1) Antifungal activity of the recombinant peptides was studied against collection strains of Candida albicans ATCC 18804 and ATCC 10231, clinical isolates of C. albicans v47a3 and 9.1, clinical isolates of C. krusei 225/2, C. glabrata 252/2 and C. tropicalis v13a4/2 isolated from the patients with human immunodeficiency virus (HIV) infection and provided by the G.N. Gabrichevsky Research Institute for Epidemiology and Microbiology (Moscow, Russia). C. albicans ATCC 18804 and v47a3, C. krusei 225/2, C. glabrata 252/2 and C. tropicalis v13a4/2 were characterized as sensitive to antimycotics yeast strains, while C. albicans ATCC 10231 and 9.1 were resistant to azoles. C. albicans ATCC 10231 was also resistant to anidulafungin (Supplementary Materials, Tables S4 and S6).
(§2) The study was carried out in Sabouraud broth using 96-well microplates. Yeast cells at a concentration of 4 × 10^4 cells/mL were mixed with equal volumes of two-fold dilutions of peptides in water, starting with a maximum concentration of 32 μM. Control wells without peptides were also used. Microplates were incubated at 30 °C for 24 h after that yeast growth was estimated using an inverted microscope and by measuring the optical density at 630 nm. MIC was defined as minimal peptide concentration, inhibiting fungal growth by 100%. To determine whether the peptides act fungicidal or fungistatic, the contents of the wells of the plate with peptide concentrations equal to MIC and higher were sown on Sabouraud agar and incubated at 37 °C for 24 h. MFC was defined as minimal peptide concentration, ensuring the death of all fungal cells. FI was defined as the fungicide index, equal to the MFC/MIC ratio and indicating the severity of the fungicidal action of the peptide. […] Either 150 mM NaCl, 1.25 mM MgCl2, 1.25 mM CaCl2 or 10% fetal bovine serum (FBS) was added to Sabouraud broth to estimate the influence of various salts and serum on the antifungal activity of peptides tested.

Data set [3] relates to Candida albicans v47a3. The experiment in a line: Sensitivity of clinical isolates to conventional antimycotics (broth dilution MIC). Particulars: V47A3, read-out: MICs.
Assay in data set [4]: not given
The source holds these as a separate data set.

Data set [5] concerns C. albicans v47a. The format is cell-based. As to conditions: 24 h.
Excerpt: as §1, §2

In data set [6] the test system is C. krusei 225/2. The class given is cell-based. Particulars: 225/2, 24 h.
Excerpt: as §1, §2

Data set [7] concerns C. tropicalis v13a4/2. The class given is cell-based. As to conditions: v13a4/2, 24 h.
Excerpt: as §1, §2

For data set [8], the system named is C. glabrata 252/2. The class given is cell-based. Particulars: 252/2, 24 h.
Excerpt: as §1, §2

In data set [9] the test system is C. albicans ATCC 10231. The class given is cell-based. As to conditions: ATCC 10231, 24 h.
Excerpt: as §1, §2

Data set [10] deals with C. albicans 9.1. The class given is cell-based. Particulars: 9.1, 24 h.
Excerpt: as §1, §2

Data set [11] concerns the target pepsin (Sus scrofa, UniProt P00791). As to conditions: 50 ng pepsin per 1 μg peptide, 0.05 M HCl pH~1.3, peptide 0.5 mg/mL, 37 °C, after 2 h, SDS-PAGE densitometry.
Experimental: Gastric digestion was performed using 50 ng of pepsin per 1 μg of acidocin A in 0.05 M HCl (pH~1.3). […] The concentration of the peptide was 0.5 mg/mL in both cases. The reaction mixtures were incubated at 37 °C for 2 h and the aliquots were taken at 5 min, 30 min and 2 h after the start of incubation, immediately mixed with the sample buffer containing 4% SDS, and heated for 5 min at 80 °C to ensure protease inactivation. The degree of proteolysis was monitored by Laemmli SDS-PAGE in 18%T 3%C polyacrylamide gels by applying a volume of the mixture containing 1.5 μg of the peptide per lane.
Data set [12] deals with human red blood cells. Details: method as in PMID 36557160. Particulars: cited from earlier work.

Sequence of pepsin (P00791 60-385): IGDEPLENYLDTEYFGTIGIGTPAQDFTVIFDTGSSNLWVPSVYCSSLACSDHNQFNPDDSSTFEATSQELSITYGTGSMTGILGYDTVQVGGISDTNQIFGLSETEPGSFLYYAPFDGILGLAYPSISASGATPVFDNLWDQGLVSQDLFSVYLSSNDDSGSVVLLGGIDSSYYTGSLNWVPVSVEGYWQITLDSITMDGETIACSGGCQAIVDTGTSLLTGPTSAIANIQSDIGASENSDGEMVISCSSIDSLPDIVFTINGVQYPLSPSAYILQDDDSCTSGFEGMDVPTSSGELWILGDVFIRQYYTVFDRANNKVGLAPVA

Turning to `C[C@@H]1[C@H](O)[C@@H](C)/C=C/C=C/C=C/C=C/C=C/C=C/C=C/[C@H](O[C@@H]2O[C@H](C)[C@@H](O)[C@H](N)[C@@H]2O)C[C@@H]2O[C@](O)(C[C@@H](O)C[C@@H](O)[C@H](O)CC[C@@H](O)C[C@@H](O)CC(=O)O[C@H]1C)C[C@H](O)[C@H]2C(=O)O` [Amphotericin B, reference compound], the MIC in data set [1] was 1 µg/mL (≈ 1.08 µM); in data set [2] (Candida albicans, ATCC18804, C. albicans ATCC 18804, wells previously blocked with 0.1% BSA, read-out: MIC) it was 0.5 µg/mL; in data set [3], 0.5 µg/mL (≈ 0.541 µM). Besides, the “concentration with fungicidal effect (2 × MIC)” value in data set [2] (C. albicans ATCC 18804, antifungal activity assay) was found to be 1 µg/mL.
For the molecule `CCCCCOc1ccc(-c2ccc(-c3ccc(C(=O)N[C@H]4C[C@@H](O)[C@@H](O)NC(=O)[C@@H]5[C@@H](O)[C@@H](C)CN5C(=O)[C@H]([C@@H](C)O)NC(=O)[C@H]([C@H](O)[C@@H](O)c5ccc(O)cc5)NC(=O)[C@@H]5C[C@@H](O)CN5C(=O)[C@H]([C@@H](C)O)NC4=O)cc3)cc2)cc1` [Anidulafungin] ({pTerphenylCO(4''-OnC5H11)}-[Orn(4R-OH,5R-OH)]T[Hyp][hTyr(3S-OH,4S-OH)]T[Pro(3S-OH,4S-Me)]; lactam 1-C), the MIC turned out to be 0.06 µg/mL (≈ 0.0526 µM) in data set [1] and 0.03 µg/mL (≈ 0.0263 µM) in data set [3].
For `CC[C@H](C)C[C@H](C)CCCCCCCCC(=O)N[C@H]1C[C@@H](O)[C@@H](NCCN)NC(=O)[C@@H]2[C@@H](O)CCN2C(=O)[C@H]([C@H](O)CCN)NC(=O)[C@H]([C@H](O)[C@@H](O)c2ccc(O)cc2)NC(=O)[C@@H]2C[C@@H](O)CN2C(=O)[C@H]([C@@H](C)O)NC1=O` [Caspofungin], in that order: 0.12 µg/mL (≈ 0.11 µM) and 0.06 µg/mL (≈ 0.0549 µM).
Regarding `OC(Cn1cncn1)(Cn1cncn1)c1ccc(F)cc1F` [Fluconazole], the MIC in [1] was found to be 256 µg/mL (≈ 836 µM); in data set [3], 8 µg/mL (≈ 26.1 µM).
For the molecule `Nc1[nH]c(=O)ncc1F` [Flucytosine], the MIC in [1] and in data set [3] was 0.06 µg/mL (≈ 0.465 µM) throughout.
As to `CCC(C)n1ncn(-c2ccc(N3CCN(c4ccc(OCC5COC(Cn6cncn6)(c6ccc(Cl)cc6Cl)O5)cc4)CC3)cc2)c1=O` (stereo not drawn) [Itraconazole], the figures for the MIC in data set [1] and in data set [3] were 16 µg/mL (≈ 22.7 µM) and 0.12 µg/mL (≈ 0.17 µM), respectively.
For `CCCCCOc1ccc(-c2cc(-c3ccc(C(=O)N[C@H]4C[C@@H](O)[C@@H](O)NC(=O)[C@@H]5[C@@H](O)[C@@H](C)CN5C(=O)[C@H]([C@H](O)CC(N)=O)NC(=O)[C@H]([C@H](O)[C@@H](O)c5ccc(O)c(OS(=O)(=O)O)c5)NC(=O)[C@@H]5C[C@@H](O)CN5C(=O)[C@H]([C@@H](C)O)NC4=O)cc3)no2)cc1` [Micafungin] (X1-[Orn(4R-OH,5R-OH)]T[Hyp][hTyr(3S-OH,4S-OH,3'-OSO3H)][Gln(3R-OH)][Pro(3S-OH,4S-Me)]; lactam 1-C), in that order: 0.015 µg/mL (≈ 0.0118 µM) and 0.008 µg/mL (≈ 0.0063 µM).
With `CC[C@@H]([C@H](C)O)n1ncn(-c2ccc(N3CCN(c4ccc(OC[C@@H]5CO[C@@](Cn6cncn6)(c6ccc(F)cc6F)C5)cc4)CC3)cc2)c1=O` [Posaconazole], the MIC in [1] was 8 µg/mL (≈ 11.4 µM); in [3], 0.12 µg/mL (≈ 0.171 µM).
For `C[C@@H](c1ncncc1F)[C@](O)(Cn1cncn1)c1ccc(F)cc1F` [Voriconazole], in that order: 8 µg/mL (≈ 22.9 µM) and 0.5 µg/mL (≈ 1.43 µM).
“KTHYPTNAWKSLWKGFWESLRYTDGF [Acidocin 8912]”: the β-Turn was 23.9% and 17% and 22.4%. For the same molecule, in data set [2] (ATCC 18804, 24 h), the MFC was greater than 32 µM and the MIC was found to be 32 µM. In addition, in [4], the Random was 28.9% and 31.2% and 20.3%. In addition, in data set [5], the MFC is greater than 32 µM and the MIC came to 16 µM. In data set [6], the MFC was found to be 32 µM and the MIC was found to be 32 µM. In data set [7], the MFC amounted to 16 µM and the MIC turned out to be 16 µM. In data set [8], this molecule came in with an MFC of 16 µM and an MIC of 16 µM. Moreover, in data set [9], the MFC stood at 32 µM and the MIC stood at 16 µM. In [10], this molecule came in with an MFC of 32 µM and an MIC of 16 µM.
As to “KTYYGTNGVHCTKKSLWGKVRLKNVIPGTLCRKQSLPIKQDLKILLGWATGAFGKTFH (disulfide 11-31) [Acidocin A]”, under “cited from earlier work”, the β-Turn is 20.3% and 19.2% and 22.6%. The MFC in [2] (ATCC 18804, 24 h) turned out to be 8 µM; in data set [5] it was 4 µM; in [6], 8 µM; in [7] it was 4 µM; in [8], 4 µM; in [9] it was 16 µM. In data set [10], this molecule returned an MFC of 16 µM. Besides, the MIC in [2] (ATCC 18804, 24 h) is 4 µM; in data set [5] it was 4 µM; in data set [6], 8 µM; in data set [7], 4 µM; in data set [8], 4 µM; in data set [9], 8 µM. The molecule further yielded an MIC in [10] of 4 µM. Besides, in data set [4] (cited from earlier work), the Random was 28.6% and 37.9% and 28.8%. The “resistance to pepsin (amount remaining)” value in data set [11] was “more than half of the initial amount was retained”. Moreover, the HC10 in [12] was greater than 128 µM.
